From PMC5460201, “Bacterial protease uses distinct thermodynamic signatures for substrate recognition” (Scientific Reports, 2017)
Peptide text beside a SMILES is read from it.

Assays:
[1] = target: Porphyromonas endodontalis dipeptidyl peptidase 11, PeDPP11_(22-717) S652A (Porphyromonas endodontalis) (UniProt F8WQK8); assay: ITC; peptide injected into PeDPP11 in the cell; 10 mM Hepes-NaOH pH 7.4, 100 mM NaCl; 25 °C; one-site binding model
[2] = target: T1, PeDPP11 (PeDPP11_22-717 S652A) (Porphyromonas endodontalis, UniProt F8WQK8, S652A); assay: Isothermal titration calorimetry (ITC) of peptide binding to PeDPP11
T1 construct: genes encoding for C-terminal 6xHis-tagged PeDPP11_22-717 S652A and PgDPP11_22-720 S655A in the pET-22b(+) vector; 6xHis (C); made in house; host or cells: E. coli BL21(DE3)pLysS
Method: All experiments were carried out in 10 mM Hepes-NaOH pH 7.4, 100 mM NaCl. Both the enzymes and the peptides were dissolved in the same buffer. The bindings were analysed with a MicroCal^TM iTC200 microcalorimeter (GE Healthcare, Life Sciences) equilibrated at the respective temperature. […] Every injection was carried out over a period of 4 s with a spacing of 110 s between the injections. […] These corrected values were plotted against the ratio peptide vs. protein concentration in the cell to generate the binding isotherm. Nonlinear least-squares fitting using Origin version 7.0 (Microcal) was used to obtain the association constants (K a), heats of binding (ΔH) and stoichiometries. […] The reported values are averages of at least two independent measurements.

[3] = tested on: cAMP-dependent protein kinase A (PKA-C); conditions: NMR and molecular dynamics; ref [40]; cited from earlier work
Description: Due to experimental challenges, the role of conformational entropy in molecular recognition by proteins has begun to be elucidated only recently, mainly by nuclear magnetic resonance (NMR) relaxation methods. Using NMR techniques and molecular dynamics simulations, Veglia and colleagues observed in cAMP-dependent protein kinase A (PKA-C) a similar binding mode to that of DPP11. […] Conversely, binding of the inhibitor PKI5-24 (protein ki ...

SEC-MALS = target: the molecule itself; assay: SEC-MALS

## dipeptide LD
[1]
  dH: -5.26 kcal/mol

## CC(C)C[C@H](N)C(=O)N[C@@H](CC(=O)O)C(=O)O [LD] (H-Leu-Asp-OH)
[2]; 10 °C (283 K), 10 mM Hepes-NaOH pH 7.4, 100 mM NaCl, 1.28 mM LD to 120 μM PeDPP11, averages of at least two independent measurements
  Kd: 0.5 ± 0.1 µM
[2]; 20 °C (293 K), 10 mM Hepes-NaOH pH 7.4, 100 mM NaCl, averages of at least two independent measurements
  Kd: 1 ± 0.3 µM

## dipeptide Arg-Asp
[1]
  dH: -3.7 kcal/mol

## PKI5-24
[3]
  effect on PKA-C protein dynamics: stabilizes the protein, quenching the enzyme dynamics
  thermodynamic signature of binding to PKA-C: enthalpically driven

## CC(C)C[C@H](N)C(=O)N[C@@H](CC(=O)O)C(=O)N[C@H](C(=O)N[C@@H](Cc1c[nH]c2ccccc12)C(=O)O)C(C)C [LDVW, Leu-Asp-Val-Trp] (H-LDVW-OH)
[2]; 15 °C (288 K), 10 mM Hepes-NaOH pH 7.4, 100 mM NaCl, averages of at least two independent measurements
  Kd: 9 ± 0.7 µM

## substrate peptide LDL
[1]
  dH: 4.06 kcal/mol

## PLN1-20: substrate PLN1-20 (phospholamban) of PKA-C (MEKVQYLTRSAIRRASTIEM; UniProt P26678 1-20, looked up, fragment)
[3]
  effect on PKA-C protein dynamics: increased conformational dynamics
  thermodynamic signature of binding to PKA-C: entropically driven

## substrate peptide Leu-Asp-Val-Trp
[1]
  dH: 5.69 kcal/mol

## Arg-Asp [RD]
[2]; 25 °C, 10 mM Hepes-NaOH pH 7.4, 100 mM NaCl, 600 μM LDVW to 60 μM, 810 μM LD to 75 μM, 1 mM LDL to 75 μM, 1.0 mM RD to 80 μM PeDPP11, averages of at least two independent measurements
  ΔH bind: -3.7 kcal/mol
[2]; 25 °C, due to water displacement caused by peptide binding and concomitant domain motion
  change in entropy on binding: favourable change in entropy
[2]; 25 °C, pH 7.4
  thermodynamic signature of binding: enthalpy-driven process

B1: Porphyromonas endodontalis dipeptidyl peptidase 11, PeDPP11_(22-717) S652A (enzyme)
chain: DGGMWLMQQINGQVARMKSLGMQLEAADIYNPNGSSLKDAVVMFDGGCTGVLVSNQGLLLTNHHCGYDQIQKHSSVQHNYLKDGFWSYSLAEELVNPGLEVEIVDEITDVTAAVKKELERIKKPSGLEFLSPRYLSSLAPEIVGKKAASRPGYRYEIKAFYGGNRYYMFTKKVFRDVRLVAAPPSSIGKFGSDTDNWAWPRHTGDFSIFRLYADKNGNPAEYSKDNVPYRPKRWVKVNAQGVKEGDFALIMGYPGTTYKFFTADEVTEWSEIDNNIRIEMRGILQDVMLREMLADPKINIMYAAKYASSQNGYKRAQGANWAIRRRSLREIKLAQQQEVLAWAKQKGIATTEEAVRAISKAIEGRQDLRMRQRYLLEGILMGIEMSNAPAADSDIADHWDDPARREAGLQSIRKQFEAFFNKDYSPEVEKDQLAIALLTRYAERIPAEKQPISIREGIAEYGSAKAYVEMIFDKSIYASRERFEEFMKNPDRDRLLRDPMSRFAASVAYEHQKLAKEVAAFDAPLAAAQRSYVASVLDMKGQPNLAPDANLTLRFTYGEIKGYQPRDVVTYGAKSTLEGVMEKEDPNNWEYVVDPKLKALYEAKNYGRYANSDGSMPVNFCATTHTTGGNAGSPVMNARGELIGLNFDRNWEGVGGDIEYLPNYQRSIILDIRYLLFIIDKFAGCQRLIDEIQPQF
notes: also called PeDPP11_(altconf); source: E. coli BL21(DE3)pLysS, purified (HisTrap, SEC)
SEC-MALS
  stoichiometry N: 2
